According to ChEMBL document CHEMBL1201862, “PubChem BioAssay data set” (2004):
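Test compounds were applied to cells in 96-well plates for 48 hours at 5 doses. At the GI50, growth is halved.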 Active and inactive are the calls of the source. Cut-off read from the data, not from the text of the source: active = GI50 up to about 1.1 µM and inactive = higher.

Tests used:
Experiment in all cases: DTP human tumour cell line panel, 48 h
NCI-H23 = tested on: NCI-H23
IGROV-1 = tested on: IGROV-1
T47D = tested on: T47D
ACHN = tested on: ACHN
HCT-116 = tested on: HCT-116
SW-620 = tested on: SW-620
HT-29 = tested on: HT-29
U-251 = tested on: U-251
EKVX = tested on: EKVX
CCRF-CEM = tested on: CCRF-CEM
PC-3 = tested on: PC-3
NCI/ADR-RES = tested on: NCI/ADR-RES
NCI-H522 = tested on: NCI-H522
SF-539 = tested on: SF-539
SF-268 = tested on: SF-268
LOX IMVI = tested on: LOX IMVI
HOP-92 = tested on: HOP-92
OVCAR-4 = tested on: OVCAR-4
SK-OV-3 = tested on: SK-OV-3
DU-145 = tested on: DU-145
RXF 393 = tested on: RXF 393
MCF7 = tested on: MCF7
SK-MEL-28 = tested on: SK-MEL-28
MOLT-4 = tested on: MOLT-4
NCI-H226 = tested on: NCI-H226
NCI-H460 = tested on: NCI-H460
UACC-257 = tested on: UACC-257
A549 = tested on: A549
MDA-N = tested on: MDA-N
A498 = tested on: A498
MDA-MB-435 = tested on: MDA-MB-435
M14 = tested on: M14
CAKI-1 = tested on: CAKI-1
SNB-19 = tested on: SNB-19
SN12C = tested on: SN12C
786-0 = tested on: 786-0
SNB-75 = tested on: SNB-75
Malme-3M = tested on: Malme-3M
OVCAR-3 = tested on: OVCAR-3
TK-10 = tested on: TK-10
SK-MEL-5 = tested on: SK-MEL-5
COLO 205 = tested on: COLO 205
SR = tested on: SR
KM12 = tested on: KM12
SF-295 = tested on: SF-295
OVCAR-5 = tested on: OVCAR-5
HOP-62 = tested on: HOP-62
HL-60 = tested on: HL-60
BT-549 = tested on: BT-549
SK-MEL-2 = tested on: SK-MEL-2
OVCAR-8 = tested on: OVCAR-8
UACC-62 = tested on: UACC-62
HCT-15 = tested on: HCT-15
Hs-578T = tested on: Hs-578T
UO-31 = tested on: UO-31
RPMI-8226 = tested on: RPMI-8226
HCC 2998 = tested on: HCC 2998
K562 = tested on: K562
MDA-MB-231 = tested on: MDA-MB-231

CCOC(=O)Cc1ccc(Nc2nc3ccccc3nc2C(=O)OCC)cc1
GI50 (NCI-H23): 47.5 µM (inactive) | GI50 (IGROV-1): 57.5 µM (inactive) | GI50 (T47D): 36.6 µM (inactive) | GI50 (ACHN): 53.5 µM (inactive) | GI50 (HCT-116): > 100 µM (inactive) | GI50 (SW-620): > 100 µM (inactive) | GI50 (HT-29): > 100 µM (inactive) | GI50 (U-251): 51.3 µM (inactive) | GI50 (EKVX): 38.4 µM (inactive) | GI50 (CCRF-CEM): > 100 µM (inactive) | GI50 (PC-3): 62.5 µM (inactive) | GI50 (NCI/ADR-RES): 50.7 µM (inactive) | GI50 (NCI-H522): 89.9 µM (inactive) | GI50 (SF-539): 37.1 µM (inactive) | GI50 (SF-268): 53.7 µM (inactive) | GI50 (LOX IMVI): > 100 µM (inactive) | GI50 (HOP-92): 43.8 µM (inactive) | GI50 (OVCAR-4): 77.1 µM (inactive) | GI50 (SK-OV-3): 54.1 µM (inactive) | GI50 (DU-145): 95.9 µM (inactive) | GI50 (RXF 393): 24 µM (inactive) | GI50 (MCF7): 61.7 µM (inactive) | GI50 (SK-MEL-28): > 100 µM (inactive) | GI50 (MOLT-4): > 100 µM (inactive) | GI50 (NCI-H226): 4.8 µM (inactive) | GI50 (NCI-H460): 44.6 µM (inactive) | GI50 (UACC-257): > 100 µM (inactive) | GI50 (A549): 35.2 µM (inactive) | GI50 (MDA-N): > 100 µM (inactive) | GI50 (A498): 20.7 µM (inactive) | GI50 (MDA-MB-435): > 100 µM (inactive) | GI50 (M14): > 100 µM (inactive) | GI50 (CAKI-1): 83.6 µM (inactive) | GI50 (SNB-19): 11.2 µM (inactive) | GI50 (SN12C): > 100 µM (inactive) | GI50 (786-0): 34 µM (inactive) | GI50 (SNB-75): 17.9 µM (inactive) | GI50 (Malme-3M): 52.1 µM (inactive) | GI50 (OVCAR-3): > 100 µM (inactive) | GI50 (TK-10): 37.1 µM (inactive) | GI50 (SK-MEL-5): 46.1 µM (inactive) | GI50 (COLO 205): > 100 µM (inactive) | GI50 (SR): > 100 µM (inactive) | GI50 (KM12): > 100 µM (inactive) | GI50 (SF-295): 32.9 µM (inactive) | GI50 (OVCAR-5): > 100 µM (inactive) | GI50 (HOP-62): 38.3 µM (inactive) | GI50 (HL-60): > 100 µM (inactive) | GI50 (BT-549): 26.2 µM (inactive) | GI50 (SK-MEL-2): 94 µM (inactive) | GI50 (OVCAR-8): 56.1 µM (inactive) | GI50 (UACC-62): 45.2 µM (inactive) | GI50 (HCT-15): > 100 µM | GI50 (Hs-578T): 34.5 µM (inactive) | GI50 (UO-31): 14.5 µM (inactive)

CCOc1ccc(NC(=O)C(=O)Nn2c(N)nnc2N)cc1
GI50 (NCI-H23): > 100 µM (inactive) | GI50 (IGROV-1): > 100 µM (inactive) | GI50 (T47D): > 100 µM (inactive) | GI50 (ACHN): > 100 µM (inactive) | GI50 (HCT-116): > 100 µM (inactive) | GI50 (SW-620): > 100 µM (inactive) | GI50 (HT-29): > 100 µM (inactive) | GI50 (U-251): > 100 µM (inactive) | GI50 (EKVX): > 100 µM (inactive) | GI50 (CCRF-CEM): > 100 µM (inactive) | GI50 (PC-3): > 100 µM (inactive) | GI50 (NCI/ADR-RES): > 100 µM (inactive) | GI50 (NCI-H522): > 100 µM (inactive) | GI50 (SF-539): > 100 µM (inactive) | GI50 (SF-268): > 100 µM (inactive) | GI50 (LOX IMVI): > 100 µM (inactive) | GI50 (HOP-92): > 100 µM (inactive) | GI50 (OVCAR-4): > 100 µM (inactive) | GI50 (SK-OV-3): > 100 µM (inactive) | GI50 (RPMI-8226): > 100 µM (inactive) | GI50 (HCC 2998): > 100 µM (inactive) | GI50 (RXF 393): > 100 µM (inactive) | GI50 (MCF7): > 100 µM (inactive) | GI50 (SK-MEL-28): > 100 µM (inactive) | GI50 (MOLT-4): > 100 µM (inactive) | GI50 (NCI-H226): > 100 µM (inactive) | GI50 (NCI-H460): > 100 µM (inactive) | GI50 (UACC-257): > 100 µM (inactive) | GI50 (A549): > 100 µM (inactive) | GI50 (MDA-N): > 100 µM (inactive) | GI50 (A498): > 100 µM (inactive) | GI50 (MDA-MB-435): > 100 µM (inactive) | GI50 (M14): > 100 µM (inactive) | GI50 (CAKI-1): > 100 µM (inactive) | GI50 (K562): > 100 µM (inactive) | GI50 (SN12C): > 100 µM (inactive) | GI50 (786-0): > 100 µM (inactive) | GI50 (SNB-75): > 100 µM (inactive) | GI50 (Malme-3M): > 100 µM (inactive) | GI50 (OVCAR-3): > 100 µM (inactive) | GI50 (TK-10): > 100 µM (inactive) | GI50 (SK-MEL-5): > 100 µM (inactive) | GI50 (SR): > 100 µM (inactive) | GI50 (KM12): > 100 µM (inactive) | GI50 (MDA-MB-231): > 100 µM (inactive) | GI50 (SF-295): > 100 µM (inactive) | GI50 (OVCAR-5): > 100 µM (inactive) | GI50 (HOP-62): > 100 µM (inactive) | GI50 (HL-60): > 100 µM (inactive) | GI50 (BT-549): > 100 µM (inactive) | GI50 (SK-MEL-2): > 100 µM (inactive) | GI50 (OVCAR-8): > 100 µM (inactive) | GI50 (UACC-62): > 100 µM (inactive) | GI50 (HCT-15): > 100 µM | GI50 (Hs-578T): > 100 µM (inactive) | GI50 (UO-31): > 100 µM (inactive)

CC(C)=CCN1c2ccccc2NC(=O)CC1C (stereo unspecified)
GI50 (NCI-H23): > 100 µM (inactive) | GI50 (IGROV-1): > 100 µM (inactive) | GI50 (T47D): 84.7 µM (inactive) | GI50 (ACHN): 71.1 µM (inactive) | GI50 (SW-620): > 100 µM (inactive) | GI50 (HT-29): > 100 µM (inactive) | GI50 (U-251): > 100 µM (inactive) | GI50 (EKVX): 51.3 µM (inactive) | GI50 (CCRF-CEM): > 100 µM (inactive) | GI50 (PC-3): > 100 µM (inactive) | GI50 (NCI/ADR-RES): 49.8 µM (inactive) | GI50 (NCI-H522): > 100 µM (inactive) | GI50 (SF-539): > 100 µM (inactive) | GI50 (SF-268): > 100 µM (inactive) | GI50 (LOX IMVI): > 100 µM (inactive) | GI50 (HOP-92): 38.7 µM (inactive) | GI50 (OVCAR-4): 28.4 µM (inactive) | GI50 (SK-OV-3): > 100 µM (inactive) | GI50 (DU-145): > 100 µM (inactive) | GI50 (RPMI-8226): > 100 µM (inactive) | GI50 (HCC 2998): > 100 µM (inactive) | GI50 (RXF 393): > 100 µM (inactive) | GI50 (MCF7): > 100 µM (inactive) | GI50 (SK-MEL-28): > 100 µM (inactive) | GI50 (MOLT-4): > 100 µM (inactive) | GI50 (NCI-H226): > 100 µM (inactive) | GI50 (NCI-H460): > 100 µM (inactive) | GI50 (UACC-257): 28.8 µM (inactive) | GI50 (A549): > 100 µM (inactive) | GI50 (A498): 83.8 µM (inactive) | GI50 (MDA-MB-435): > 100 µM (inactive) | GI50 (M14): > 100 µM (inactive) | GI50 (CAKI-1): > 100 µM (inactive) | GI50 (SNB-19): > 100 µM (inactive) | GI50 (K562): > 100 µM (inactive) | GI50 (SN12C): 33.3 µM (inactive) | GI50 (786-0): > 100 µM (inactive) | GI50 (Malme-3M): > 100 µM (inactive) | GI50 (OVCAR-3): 70.6 µM (inactive) | GI50 (TK-10): 55.8 µM (inactive) | GI50 (SK-MEL-5): 29.3 µM (inactive) | GI50 (COLO 205): > 100 µM (inactive) | GI50 (SR): 56.5 µM (inactive) | GI50 (KM12): > 100 µM (inactive) | GI50 (MDA-MB-231): > 100 µM (inactive) | GI50 (SF-295): > 100 µM (inactive) | GI50 (OVCAR-5): > 100 µM (inactive) | GI50 (HOP-62): > 100 µM (inactive) | GI50 (HL-60): 61.2 µM (inactive) | GI50 (BT-549): 22.7 µM (inactive) | GI50 (SK-MEL-2): > 100 µM (inactive) | GI50 (OVCAR-8): > 100 µM (inactive) | GI50 (HCT-15): > 100 µM | GI50 (Hs-578T): > 100 µM (inactive) | GI50 (UO-31): 83.4 µM (inactive)
